According to patent US6906035B2, “Antimicrobial cationic peptides” (priority 1995, dated 2005):
Where “and” joins values, the source holds several entries; their conditions need not be identical. Equal values may be shown once. Read-outs that look alike come from different tables or passages of the source.

Legend:
[1] = system: P. aeruginosa; assay: microbe, parasite or virus in culture; conditions: agent alone
Experimental: (§1) FICs are performed by checkerboard titrations of peptides in one dimension of a microtiter plate, and of antibiotics in the other dimension, for example. The FIC is calculated by looking at the impact of one antibiotic on the MIC of the other and vice versa. […] Preferably, an FIC of less than 0.5 is obtained for synergism. As used herein, FIC can be determined as follows: [formula]
(§2) Synergism is identified as an FIC of about ≦0.5.

[2] = α helical content by CD spectra; assay type: physicochemical
Experimental: α Helical Content of Cationic Peptides by CD Spectra
The α helical content of the peptides were measured in buffer, liposomes and 20% Hexafluoroisopropanol (HFPIP). The liposomes constituted of POPC alone or POPC and POPC and 30% POPG (Table 7).

[3] = system: LPS; assay: Dansyl polymyxin displacement assay; assay type: binding; conditions: Dansyl polymyxin displacement from LPS
Text: In addition, the peptides of SEQ ID NO: 5-8 also bound effectively to LPS with high affinity based on Dansyl polymyxin displacement assays (Table 5).

[4] = system: E. cloacae; conditions: agent alone
Experimental: as §1, §2

[5] = system: A. calcoaceticus; conditions: agent alone
Experimental: as §1, §2

[6] = system: Candida albicans; assay: MIC, broth dilution in LB-S; assay type: cell-based
Experimental: as §1
(§3) Briefly, cells were grown overnight at 37° C. in LB-S (Luria broth without any salt supplement) and diluted one in 10,000 in the same medium to give concentrations of about 10^4 to 10^5 CFU/ml. The broth dilutions were set up in a 96 well microtiter plate by putting 200 μl of LB-S containing the initial concentration of antibiotic or compound in column 1 and 100 μl of the same medium in columns 2-12. The compounds were diluted by taking 100 μl of broth from column 1 and mixing it with column 2, resulting in a one in two dilution. This was continued to column 10. Finally, 10 μl of bacteria were pipetted into columns 1-11, and the plates incubated overnight at 37° C. The next day the plates were scored for growth in the wells, and the MIC determined.

[7] = system: X. maltophila; assay: organism not typed; conditions: agent alone
Experimental: as §1, §2

[8] = system: S. epidermis; conditions: S. epidermis
Experimental: as §1, §3

[9] = system: P. aeruginosa
Experimental: as §1, §3

[10] = system: E. coli ML 35; assay: Inner membrane permeabilization (ONPG hydrolysis by β-galactosidase); assay type: cell-based; conditions: E. coli ML 35, ONPG
Experimental: Inner membrane permeability was determined by measurement in E. coli ML 35 of β-galactosidase activity using ONPG as a substrate. Normally ONPG cannot pass across the cytoplasmic membrane to permit hydrolysis by the cytoplasmic enzyme β-galactosidase. However, cationic peptides, by permeabilizing the inner membrane, unmasks this enzyme leading to color development as ONP is released. […] Addition of citrate increased the lag time before the peptides were able to permeabilize the membranes. When the experiments were executed in cation adjusted media (CAMHB), the lag time was increased up to 30 minutes.

[11] = system: Red Blood Cells; assay: Red blood cell lysis; assay type: cell-based; conditions: concentration lysing Red Blood Cells
[12] = system: E. faecalis; assay: MIC, broth dilution in LB-S; assay type: cell-based; conditions: Table 1b, separate set of experiments
Experimental: (§4) The biological activity of the peptides can be determined by standard methods known to those of skill in the art, such as “minimal inhibitory concentration (MIC)” assay described in the present examples, whereby the lowest concentration at which no change in OD is observed for a given period of time is recorded as MIC. Alternatively, “fractional inhibitory concentration (FIC)” is also useful for determination of synergy between the peptides of the invention, or the peptides in combination with known antibiotics. FICs are performed by checkerboard titrations of peptides in one dimension of a microtiter plate, and of antibiotics in the other dimension, for example. The FIC is calculated by looking at the impact of one antibiotic on the MIC of the other and vice versa. […] Preferably, an FIC of less than 0.5 is obtained for synergism. As used herein, FIC can be determined as follows: [formula]
as §3

[13] = system: E. cloacae; assay: MIC, broth dilution in LB-S; assay type: cell-based; conditions: additional MICs
Experimental: as §4, §3

[14] = system: E. coli; assay: MIC, broth dilution in LB-S; assay type: cell-based
Experimental: as §4, §3

[15] = system: A. calcoaceticus; assay: MIC, broth dilution in LB-S; assay type: cell-based; conditions: additional MICs
Experimental: as §4, §3

[16] = system: K. pneumoniae; assay: MIC, broth dilution in LB-S; assay type: cell-based; conditions: additional MICs
Experimental: as §4, §3

[17] = system: X maltophilia; assay: MIC, broth dilution in LB-S; assay type: cell-based; conditions: additional MICs
Experimental: as §4, §3

[18] = system: S. aureus; assay: MIC, broth dilution in LB-S; assay type: cell-based
Experimental: as §4, §3

CC[C@H](C)[C@H](NC(=O)[C@H](CC(C)C)NC(=O)[C@H](C)NC(=O)[C@@H]1CCCN1C(=O)[C@H](CC(C)C)NC(=O)CNC(=O)[C@@H](NC(=O)[C@@H](NC(=O)[C@H](CC(C)C)NC(=O)[C@@H](NC(=O)[C@H](CCCCN)NC(=O)[C@H](CCCCN)NC(=O)[C@@H](NC(=O)[C@H](C)NC(=O)[C@@H](NC(=O)[C@@H](NC(=O)[C@H](CC(C)C)NC(=O)[C@H](CCCCN)NC(=O)[C@H](CCCCN)NC(=O)[C@@H](NC(=O)[C@H](Cc1ccccc1)NC(=O)[C@H](CO)NC(=O)[C@H](CCCCN)NC(=O)[C@H](Cc1c[nH]c2ccccc12)NC(=O)[C@@H](N)CCCCN)[C@@H](C)CC)[C@@H](C)O)[C@@H](C)O)C(C)C)C(C)C)[C@@H](C)O)[C@@H](C)O)C(=O)N[C@@H](CO)C(=O)O [MBI 29]
MIC ([1]; P. aeruginosa isolate 23, strain ATCC 27853): 32 µg/mL and 64 µg/mL
MIC ([1]; P. aeruginosa isolate 24, strain 34): 32 µg/mL and 16 µg/mL
MIC ([1]; P. aeruginosa isolate 25, strain 923-1): 32 µg/mL and 64 µg/mL
MIC ([1]; P. aeruginosa isolate 26, strain 3101): 32 µg/mL and 64 µg/mL
MIC ([1]; P. aeruginosa isolate 29, strain 15545): 32 µg/mL and 64 µg/mL
MIC ([1]; P. aeruginosa isolate 32, strain W2897-1): 32 µg/mL and 64 µg/mL
% α helicity ([2]; 20% HFIP): 50%
% α helicity ([2]; Buffer): 0%
% α helicity ([2]; POPC Liposomes): 16%
% α helicity ([2]; POPC/POPG Liposomes (30% POPG)): 8%
1max [3]: 40%
MIC ([4]; E. cloacae isolate 12, strain ATCC 13047): 32 µg/mL and 64 µg/mL
MIC ([4]; E. cloacae isolate 14, strain 938-2): 32 µg/mL and 16 µg/mL
MIC ([4]; E. cloacae isolate 15, strain B5546): 32 µg/mL
MIC ([4]; E. cloacae isolate 17, strain R4148-2): 16 µg/mL and 32 µg/mL
MIC ([4]; E. cloacae isolate 18, strain 3077): 32 µg/mL
MIC ([4]; E. cloacae isolate 19, strain 3356): 32 µg/mL
MIC ([5]; A. calcoaceticus isolate 1, strain ATCC 23055): 32 µg/mL and 64 µg/mL
MIC ([5]; A. calcoaceticus isolate 7, strain 8222): 16 µg/mL and 32 µg/mL
MIC ([5]; A. calcoaceticus isolate 8, strain 8223): 16 µg/mL and 32 µg/mL
MIC ([5]; A. calcoaceticus isolate 9, strain 8224): 16 µg/mL and 32 µg/mL
MIC ([5]; A. calcoaceticus isolate 10, strain 8225): 16 µg/mL and 32 µg/mL
MIC ([5]; A. calcoaceticus isolate 11, strain 8226): 16 µg/mL and 32 µg/mL
MIC ([6]; Candida albicans (CAN105), Table 1b, separate set of experiments): 32 µg/mL
MIC ([6]; Candida alibicans (CAN105), Table 1a): 40 µg/mL
MIC ([7]; X. maltophila isolate 35, strain 6): 32 µg/mL and 16 µg/mL
MIC ([7]; X. maltophila isolate 36, strain 16): 32 µg/mL
MIC ([7]; X. maltophila isolate 37, strain 3095): 64 µg/mL
MIC ([7]; X. maltophila isolate 38, strain 7901): 64 µg/mL
MIC ([7]; X. maltophila isolate 39, strain B3110.1): 32 µg/mL
MIC ([7]; X. maltophila isolate 40, strain R1302-1): 32 µg/mL and 64 µg/mL
MIC ([7]; X. maltophila isolate 41, strain R4230): 16 µg/mL and 32 µg/mL
MIC ([7]; X. maltophila isolate 43, strain TF29-2): 16 µg/mL and 32 µg/mL
MIC ([8]; Table 1a): 10 µg/mL
MIC ([8]; Table 1b, separate set of experiments): 16 µg/mL
MIC ([8]; Table 1b, separate set of experiments, listed as MBI 29^me): 8 µg/mL
MIC ([9]; P. aeruginasa (H 103), additional MICs): 4 µg/mL
MIC ([9]; P. aeruginosa (H187), Table 1a): 5 µg/mL
MIC ([9]; P. aeruginosa (H187), Table 1b, separate set of experiments): 16 µg/mL
MIC ([9]; P. aeruginosa (H187), Table 1b, separate set of experiments, listed as MBI 29^me): 8 µg/mL
MIC P. aeruginosa (H187) ([9]; P. aeruginosa (H187), Table 6): 1.0 µg/mL
Lag Time [10]: 66 s
Rate of Hydrolysis [10]: 0.21 ΔAU min^−1
RBC Lysis [11]: >55 µg/mL
MIC [12]: 32 µg/mL
MIC ([12]; listed as MBI 29^me): ≧64
MIC [13]: 2 µg/mL
MIC ([14]; E. coli 0111:B4, additional MICs): 2 µg/mL
MIC ([14]; E. coli (UB1005), Table 1a): 3 µg/mL
MIC ([14]; E. coli (UB1005), Table 1b, separate set of experiments): 4 µg/mL
MIC E. coli (UB 1005) ([14]; E. coli (UB 1005), Table 6): 0.5 µg/mL
MIC ([14]; E. coli. Bort, additional MICs): 6 µg/mL
MIC [15]: 4 µg/mL
MIC [16]: 16 µg/mL
MIC [17]: 3 µg/mL
MIC ([18]; S. aureus (K 147), Table 1a): 20 µg/mL
MIC ([18]; S. aureus (K147), Table 1b, separate set of experiments): 32 µg/mL
MIC ([18]; S. aureus (K147), Table 1b, separate set of experiments, listed as MBI 29^me): 16 µg/mL
MIC ([18]; S. aureus (SAP0017), Table 1a): 18 µg/mL
MIC ([18]; S. aureus (SAP0017), Table 1b, separate set of experiments): 32 µg/mL
MIC ([18]; S. aureus (SAP0017), Table 1b, separate set of experiments, listed as MBI 29^me): 16 µg/mL
